{
  "source": "ChEMBL document CHEMBL3580540",
  "about": "“N1-linked melatonin dimers as bivalent ligands targeting dimeric melatonin receptors” (Medchemcomm, 2014)",
  "assay_type_in_all_cases": "cell-based",
  "key": {"[1]": {"test": "Displacement of 2-[125I]-iodomelatonin from human MT1 receptor expressed in CHO cells by Gamma counting"}, "[2]": {"test": "Displacement of 2-[125I]-iodomelatonin from human MT2 receptor expressed in CHO cells by Gamma counting"}, "HEK-293T [3]": {"test_system": "HEK-293T", "test": "Binding affinity to Rluc-tagged MT2/YFP-tagged MT1 (unknown origin) transfected in HEK293T cells assessed as bioluminescence resonance energy transfer ratio at 10 uM after 10 mins by lumino/fluorometer (reference value: 2.300 +/- 0.777)", "conditions": "Homo sapiens"}, "HEK-293T [4]": {"test_system": "HEK-293T", "test": "Binding affinity to Rluc-tagged MT1/YFP-tagged MT1 (unknown origin) transfected in HEK293T cells assessed as bioluminescence resonance energy transfer ratio at 10 uM after 10 mins by lumino/fluorometer (reference value: 0.092 +/- 0.007)", "conditions": "Homo sapiens"}, "HEK-293T [5]": {"test_system": "HEK-293T", "test": "Binding affinity to Rluc-tagged MT1/YFP-tagged MT2 (unknown origin) transfected in HEK293T cells assessed as bioluminescence resonance energy transfer ratio at 10 uM after 10 mins by lumino/fluorometer (reference value: 0.254 +/- 0.035)", "conditions": "Homo sapiens"}, "HEK-293T [6]": {"test_system": "HEK-293T", "test": "Binding affinity to Rluc-tagged MT2/YFP-tagged MT2 (unknown origin) transfected in HEK293T cells assessed as bioluminescence resonance energy transfer ratio at 10 uM after 10 mins by lumino/fluorometer (reference value: 1.468 +/- 0.560)", "conditions": "Homo sapiens"}},
  "data": [
    {"smiles": "COc1ccc2c(c1)c(CCNC(C)=O)cn2CC(=O)NCCCCCCCCCCNC(=O)Cn1cc(CCNC(C)=O)c2cc(OC)ccc21", "values": [
      {"measurement": "pKi", "setting": "[1]", "result": 6.37},
      {"measurement": "pKi", "setting": "[2]", "result": 7.34}
    ]},
    {"smiles": "COc1ccc2c(c1)c(CCNC(C)=O)cn2CCCCC(=O)NCCCCCCCCCCCCNC(=O)CCCCn1cc(CCNC(C)=O)c2cc(OC)ccc21", "values": [
      {"measurement": "pKi", "setting": "[1]", "result": 6.08},
      {"measurement": "Ratio", "setting": "HEK-293T [3]", "result": 6.81},
      {"measurement": "Ratio", "setting": "HEK-293T [4]", "result": 0.062},
      {"measurement": "pKi", "setting": "[2]", "result": 6.67},
      {"measurement": "Ratio", "setting": "HEK-293T [5]", "result": 0.2},
      {"measurement": "Ratio", "setting": "HEK-293T [6]", "result": 1.15}
    ]},
    {"smiles": "COc1ccc2c(c1)c(CCNC(C)=O)cn2CCCCC(=O)NCCCCCCCCCCNC(=O)CCCCn1cc(CCNC(C)=O)c2cc(OC)ccc21", "values": [
      {"measurement": "pKi", "setting": "[1]", "result": 6.33},
      {"measurement": "Ratio", "setting": "HEK-293T [3]", "result": 9.28},
      {"measurement": "Ratio", "setting": "HEK-293T [4]", "result": 0.098},
      {"measurement": "pKi", "setting": "[2]", "result": 6.62},
      {"measurement": "Ratio", "setting": "HEK-293T [5]", "result": 0.223},
      {"measurement": "Ratio", "setting": "HEK-293T [6]", "result": 1.39}
    ]},
    {"smiles": "COc1ccc2c(c1)c(CCNC(C)=O)cn2CCCCC(=O)NCCCCCCCCNC(=O)CCCCn1cc(CCNC(C)=O)c2cc(OC)ccc21", "values": [
      {"measurement": "pKi", "setting": "[1]", "result": 6.17},
      {"measurement": "pKi", "setting": "[2]", "result": 6.74}
    ]},
    {"smiles": "COc1ccc2c(c1)c(CCNC(C)=O)cn2CCCCC(=O)NCCCCCCCCCNC(=O)CCCCn1cc(CCNC(C)=O)c2cc(OC)ccc21", "values": [
      {"measurement": "pKi", "setting": "[1]", "result": 6.23},
      {"measurement": "pKi", "setting": "[2]", "result": 6.79}
    ]},
    {"smiles": "COc1ccc2c(c1)c(CCNC(C)=O)cn2CCCCC(=O)NCCCCCCCNC(=O)CCCCn1cc(CCNC(C)=O)c2cc(OC)ccc21", "values": [
      {"measurement": "pKi", "setting": "[1]", "result": 6.24},
      {"measurement": "pKi", "setting": "[2]", "result": 5.93}
    ]},
    {"smiles": "COc1ccc2c(c1)c(CCNC(C)=O)cn2CCCCC(=O)NCCCCCCCCCCCNC(=O)CCCCn1cc(CCNC(C)=O)c2cc(OC)ccc21", "values": [
      {"measurement": "pKi", "setting": "[1]", "result": 6.11},
      {"measurement": "Ratio", "setting": "HEK-293T [3]", "result": 10.1},
      {"measurement": "Ratio", "setting": "HEK-293T [4]", "result": 0.078},
      {"measurement": "pKi", "setting": "[2]", "result": 6.54},
      {"measurement": "Ratio", "setting": "HEK-293T [5]", "result": 0.217},
      {"measurement": "Ratio", "setting": "HEK-293T [6]", "result": 0.901}
    ]},
    {"smiles": "COc1ccc2c(c1)c(CCNC(C)=O)cn2CC(=O)NCCCCCCCCCNC(=O)Cn1cc(CCNC(C)=O)c2cc(OC)ccc21", "values": [
      {"measurement": "pKi", "setting": "[1]", "result": 4.83},
      {"measurement": "pKi", "setting": "[2]", "result": 4.93}
    ]},
    {"smiles": "COc1ccc2c(c1)c(CCNC(C)=O)cn2CC(=O)NCCCCCCCCCCCCNC(=O)Cn1cc(CCNC(C)=O)c2cc(OC)ccc21", "values": [
      {"measurement": "pKi", "setting": "[1]", "result": 6.47},
      {"measurement": "pKi", "setting": "[2]", "result": 7.02}
    ]},
    {"smiles": "COc1ccc2c(c1)c(CCNC(C)=O)cn2CCCCC(=O)NCCCCCCNC(=O)CCCCn1cc(CCNC(C)=O)c2cc(OC)ccc21", "values": [
      {"measurement": "pKi", "setting": "[1]", "result": 5.64},
      {"measurement": "pKi", "setting": "[2]", "result": 5.9}
    ]},
    {"smiles": "COc1ccc2c(c1)c(CCNC(C)=O)cn2CC(=O)NCCCCCCCCCCCNC(=O)Cn1cc(CCNC(C)=O)c2cc(OC)ccc21", "values": [
      {"measurement": "pKi", "setting": "[1]", "result": 5.12},
      {"measurement": "pKi", "setting": "[2]", "result": 6.53}
    ]},
    {"smiles": "CCCCCCNC(=O)CCCCn1cc(CCNC(C)=O)c2cc(OC)ccc21", "values": [
      {"measurement": "pKi", "setting": "[1]", "result": 5.79},
      {"measurement": "pKi", "setting": "[2]", "result": 6.41}
    ]}
  ]
}
